One series addresses Albumin (Homo sapiens, UniProt P02768). The experiment in a line: Protein binding affinity for human serum albumin was measured.
The test system of series [1] is Pseudomonas aeruginosa. Briefly: Minimum Potentiation Concentration of EPI required to achieve an 8-fold reduction in antibiotic MIC of AZT against MexAB-OprM pump system in Pseudomonas aeruginosa without horse serum. Format: functional.
The subject of series [2] is Pseudomonas aeruginosa. Briefly: Minimum Potentiation Concentration of EPI required to achieve an 8-fold reduction in antibiotic MIC of AZT against MexAB-OprM pump system in Pseudomonas aeruginosa with 10% horse serum. Format: functional.
Series [3] in a line: Ratio of potentiation of AZT without serum to with serum. In kind it is functional.
For series [4], the system named is Pseudomonas aeruginosa. Briefly: Minimum Potentiation Concentration of EPI required to achieve an 8-fold reduction in antibiotic MIC of levofloxacin against MexABOprMover-expressing strain of Pseudomonas aeruginosa. In kind it is functional.
Series [5] concerns Mus musculus. Briefly: In vivo number of survivors on day 0 after administration at the dose of 50 mg/kg along LVFX (15 mg/kg) in mice (Pseudomonas aeruginosa PAM1723). In kind it is functional.
Series [6] deals with Mus musculus. Briefly: In vivo number of survivors on day 4 after administration at the dose of 50 mg/kg along LVFX (7.5 mg/kg) in mice (Pseudomonas aeruginosa PAM1723). Format: functional.
For series [7], the system named is Mus musculus. Briefly: In vivo number of survivors on day 0 after administration at the dose of 50 mg/kg along LVFX (7.5 mg/kg) in mice (Pseudomonas aeruginosa PAM1723). Format: functional.
In series [8] the test system is Mus musculus. The experiment in a line: In vivo number of survivors on day 7 after administration at the dose of 50 mg/kg along LVFX (7.5 mg/kg) in mice (Pseudomonas aeruginosa PAM1723). In kind it is functional.
Series [9] has as its system Pseudomonas aeruginosa. The experiment in a line: In vivo percent survival on day 7th after administration at the dose of 50 mg/kg along LVFX (7.5 mg/kg) in Pseudomonas aeruginosa PAM1723. Format: functional.
Series [10] has as its system Mus musculus. The experiment in a line: In vivo number of survivors on day 1after administration at the dose of 50 mg/kg along LVFX (7.5 mg/kg) in mice (Pseudomonas aeruginosa PAM1723). Format: functional.
Series [11] concerns Pseudomonas aeruginosa. The experiment in a line: In vivo percent survival on day 7th after administration at the dose of 50 mg/kg along LVFX (15 mg/kg) in Pseudomonas aeruginosa PAM1723. In kind it is functional.
For series [12], the system named is Pseudomonas aeruginosa. The experiment in a line: Minimum concentration ([…]) of inhibitor required to reduce (potentiate) the activity of antibacterial drug-LVFX for Pseudomonas aeruginosa PAM1723 by n-fold. Format: functional.
Series [13] has as its system Mus musculus. Briefly: In vivo number of survivors on day 4 after administration (15 mg/kg) in mice Pseudomonas aeruginosa PAM1723). In kind it is functional.
For series [14], the system named is Mus musculus. The experiment in a line: In vivo number of survivors on day 0 after administration (7.5 mg/kg) in mice(Pseudomonas aeruginosa PAM1723). Format: functional.
Series [15] concerns Mus musculus. Briefly: In vivo percent survival on day 7th after administration (15 mg/kg) in mice(Pseudomonas aeruginosa PAM1723). In kind it is functional.
The subject of series [16] is Mus musculus. The experiment in a line: In vivo number of survivors on day 7 after administration (30 mg/kg) in mice(Pseudomonas aeruginosa PAM1723). Format: functional.
The test system of series [17] is Mus musculus. Briefly: In vivo percent survival on day 7th after administration (7.5 mg/kg) in mice(Pseudomonas aeruginosa PAM1723). Format: functional.
Series [18] concerns Mus musculus. The experiment in a line: In vivo number of survivors on day 1 after administration (15 mg/kg) in mice(Pseudomonas aeruginosa PAM1723). Format: functional.
For series [19], the system named is Mus musculus. Briefly: In vivo number of survivors on day 4 after administration (30 mg/kg) in mice(Pseudomonas aeruginosa PAM1723). Format: functional.
The test system of series [20] is Mus musculus. Briefly: In vivo number of survivors on day 0 after administration (15 mg/kg) in mice(Pseudomonas aeruginosa PAM1723). In kind it is functional.
For series [21], the system named is Mus musculus. The experiment in a line: In vivo percent survival on day 7th after administration (30 mg/kg) in mice(Pseudomonas aeruginosa PAM1723). Format: functional.
The test system of series [22] is Mus musculus. The experiment in a line: In vivo number of survivors on day 4 after administration (7.5 mg/kg) in mice(Pseudomonas aeruginosa PAM1723). In kind it is functional.
Series [23] has as its system Mus musculus. Briefly: In vivo number of survivors on day 0 after administration (30 mg/kg) in mice(Pseudomonas aeruginosa PAM1723). In kind it is functional.
The test system of series [24] is Mus musculus. The experiment in a line: In vivo number of survivors on day 1 after administration (7.5 mg/kg) in mice(Pseudomonas aeruginosa PAM1723). Format: functional.
Series [25] concerns Mus musculus. Briefly: In vivo number of survivors on day 1 after administration (30 mg/kg) in mice(Pseudomonas aeruginosa PAM1723). Format: functional.
Series [26] concerns Mus musculus. The experiment in a line: In vivo number of survivors on day 7 after administration (15 mg/kg) in mice(Pseudomonas aeruginosa PAM1723). In kind it is functional.
Series [27] concerns Mus musculus. The experiment in a line: In vivo number of survivors on day 7 after administration (7.5 mg/kg) in mice(Pseudomonas aeruginosa PAM1723). Format: functional.
For series [28], the system named is Mus musculus. The experiment in a line: In vivo number of survivors on day 7 after administration at the dose of 50 mg/kg along LVFX(7.5 mg/kg) in mice (Pseudomonas aeruginosa PAM1723). Format: functional.
Series [29] relates to Mus musculus. Briefly: In vivo number of survivors on day 0 after administration at the dose of 50 mg/kg along LVFX (7.5 mg/kg) along with in mice (Pseudomonas aeruginosa PAM1723). Format: functional.
Series [30] has as its system Mus musculus. Briefly: In vivo number of survivors on day 7 after administration at the dose of 50 mg/kg along LVFX (15 mg/kg) in mice (Pseudomonas aeruginosa PAM1723). Format: functional.
Series [31] has as its system Mus musculus. Briefly: In vivo number of survivors on day 1after administration at the dose of 50 mg/kg along LVFX (15 mg/kg) in mice (Pseudomonas aeruginosa PAM1723). Format: functional.
For series [32], the system named is Mus musculus. The experiment in a line: In vivo number of survivors on day 4 after administration at the dose of 50 mg/kg along LVFX (15 mg/kg) in mice (Pseudomonas aeruginosa PAM1723). Format: functional.

pKd: −log10 of the molar value. Where only a bound is given, the exact number is not on record here.

We go through 11 compounds from ChEMBL document CHEMBL1136458, “MexAB-OprM specific efflux pump inhibitors in Pseudomonas aeruginosa. Part 2: achieving activity in vivo through the use of alternative scaffolds” (Bioorg Med Chem Lett, 2003).

Chain of Albumin (P02768 whole entry): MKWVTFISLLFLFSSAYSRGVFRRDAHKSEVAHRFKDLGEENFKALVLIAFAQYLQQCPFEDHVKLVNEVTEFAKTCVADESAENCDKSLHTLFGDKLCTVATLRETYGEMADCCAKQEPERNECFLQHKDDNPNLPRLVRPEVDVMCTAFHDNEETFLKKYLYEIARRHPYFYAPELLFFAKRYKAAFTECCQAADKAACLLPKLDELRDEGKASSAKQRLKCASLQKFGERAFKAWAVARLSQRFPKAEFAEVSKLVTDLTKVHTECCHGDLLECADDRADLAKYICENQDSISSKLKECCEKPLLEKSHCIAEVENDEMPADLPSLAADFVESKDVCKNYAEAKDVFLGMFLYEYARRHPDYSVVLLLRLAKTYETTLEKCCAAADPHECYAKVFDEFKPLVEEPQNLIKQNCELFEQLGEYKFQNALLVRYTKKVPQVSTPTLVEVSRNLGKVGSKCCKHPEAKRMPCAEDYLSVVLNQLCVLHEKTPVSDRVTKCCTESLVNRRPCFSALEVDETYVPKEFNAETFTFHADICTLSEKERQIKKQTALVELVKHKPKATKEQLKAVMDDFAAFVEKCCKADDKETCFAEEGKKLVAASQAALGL

Broadly, the pKd is −log10 of the Kd, conventionally taken in molar units. A low value points to a large Kd. In the case of `CC(C)c1csc(/C=C/c2cccc(NC(=O)Cc3ccccc3C(=O)O)c2)n1`, the Binding at Albumin is above 99.9%. This compound showed a pKd at Albumin of 6.55. The results for the MPC8 entry in the series with Pseudomonas aeruginosa [1], in the series on Pseudomonas aeruginosa [2] and in the series with Pseudomonas aeruginosa [4] were “<=0.63 ug ml-1”, 10 µg/mL and above 60 µg/mL, respectively. Further, the Ratio in series [3] is above 16.

At Albumin, `CC(C)c1csc(COc2ccn3c(=O)c(-c4nnn[nH]4)cnc3c2)n1` showed a Binding of 88.4%. Further, the pKd at Albumin was 4.18. Besides, the MPC8 with Pseudomonas aeruginosa [1] was 5 µg/mL; in the series with Pseudomonas aeruginosa [2], 5 µg/mL; in the series on Pseudomonas aeruginosa [4] it was 10 µg/mL. Moreover, the No. of survivors in the series with Mus musculus [5] is 10; in the series on Mus musculus [6] it was 4; in the series on Mus musculus [7], 10; in the series on Mus musculus [8], 4; in the series with Mus musculus [10], 4. For the same compound, the Ratio in series [3] stood at 1. Also, the figures for the survival at 50 mg/kg in the series on Pseudomonas aeruginosa [9] and with Pseudomonas aeruginosa [11] were 40% and 100%, respectively.

`CC(C)c1csc(CCc2ccn3c(=O)c(-c4nnn[nH]4)cnc3c2)n1` came in with a Binding at Albumin of 81.5%. This compound also gave a pKd on Albumin of 3.49. Further, the MPC8 is 10 µg/mL in the series on Pseudomonas aeruginosa [1], 10 µg/mL with Pseudomonas aeruginosa [2] and above 80 µg/mL with Pseudomonas aeruginosa [12]. Besides, the Ratio in series [3] was 1.

As to `CC(C)c1csc(CCc2ccn3c(=O)c(C(=O)O)cnc3c2)n1`, the MPC8 in the series with Pseudomonas aeruginosa [1] and with Pseudomonas aeruginosa [2] was above 40 µg/mL each time.

For the compound `C[C@H]1COc2c(N3CCN(C)CC3)c(F)cc3c(=O)c(C(=O)O)cn1c23.C[C@H]1COc2c(N3CCN(C)CC3)c(F)cc3c(=O)c(C(=O)O)cn1c23.O` [LEVOFLOXACIN], the No. of survivors is on record as 1 in the series on Mus musculus [13]; 10 in the series with Mus musculus [14]; 7 with Mus musculus [16]; 1 in the series on Mus musculus [18]; 7 in the series on Mus musculus [19]; 10 with Mus musculus [20]. The No. of survivors with Mus musculus [22] stood at 0; in the series on Mus musculus [23] it was 10; with Mus musculus [24] it was 0; in the series on Mus musculus [25], 9; in the series on Mus musculus [26] it was 1; in the series with Mus musculus [27], 0. In addition, the Survival is listed as 10% in the series on Mus musculus [15], 0% in the series on Mus musculus [17] and 70% in the series on Mus musculus [21].

As for `CC(C)c1csc(COc2ccn3c(=O)c(C(=O)O)cnc3c2)n1`, the figures for the MPC8 with Pseudomonas aeruginosa [1], in the series on Pseudomonas aeruginosa [2] and in the series on Pseudomonas aeruginosa [4] were 40 µg/mL, 80 µg/mL and 320 µg/mL, respectively. Further, the Ratio in series [3] was determined as 2.

Turning to `CC(C)c1csc(/C=C/c2ccn3c(=O)c(C(=O)O)cnc3c2)n1`, the MPC8 in the series with Pseudomonas aeruginosa [1] was 80 µg/mL; in the series with Pseudomonas aeruginosa [2] it was 40 µg/mL; with Pseudomonas aeruginosa [4] it was above 320 µg/mL. The Ratio in series [3] came out at 0.5.

On to `CC(C)c1csc(/C=C/c2ccn3c(=O)c(-c4nnn[nH]4)cnc3c2)n1`, for which the Binding at Albumin worked out at 90.8%. This compound also gave a pKd at Albumin of 4.66. The No. of survivors was found to be 1 in the series on Mus musculus [28]; 10 with Mus musculus [5]; 1 in the series with Mus musculus [6]; 10 with Mus musculus [29]; 7 in the series on Mus musculus [30]; 10 in the series with Mus musculus [31]. Further, the No. of survivors with Mus musculus [10] was found to be 1; with Mus musculus [32] it was 7. Besides, the MPC8 came to 2.5 µg/mL with Pseudomonas aeruginosa [1], 2.5 µg/mL in the series on Pseudomonas aeruginosa [2] and 1.25 µg/mL in the series on Pseudomonas aeruginosa [4]. Further, the Ratio in [3] stood at 1. For the same compound, the survival at 50 mg/kg was found to be 10% in the series with Pseudomonas aeruginosa [9] and 70% in the series on Pseudomonas aeruginosa [11].

On to `CCn1cc(C(=O)O)c(=O)c2ccc(/C=C/c3nc(C(C)C)cs3)cc21`, for which the MPC8 with Pseudomonas aeruginosa [1] was 10 µg/mL; with Pseudomonas aeruginosa [2], 10 µg/mL; in the series with Pseudomonas aeruginosa [4] it was above 160 µg/mL. Besides, in [3], the Ratio came out at 1.

As for `CCn1cc(-c2nnn[nH]2)c(=O)c2ccc(/C=C/c3nc(C(C)C)cs3)cc21`, the MPC8 in the series on Pseudomonas aeruginosa [1] was 5 µg/mL; with Pseudomonas aeruginosa [2], 20 µg/mL; with Pseudomonas aeruginosa [4], 1.25 µg/mL. Further, the Ratio in series [3] amounted to 4.

For the compound `CC(C)c1csc(COc2cc3c(cc2F)c(=O)c(C(=O)O)cn3C2CC2)n1`, the Binding at Albumin was found to be 90.5%. Besides, the MPC8 with Pseudomonas aeruginosa [1] worked out at 10 µg/mL; with Pseudomonas aeruginosa [2] it was 10 µg/mL; in the series with Pseudomonas aeruginosa [4], 320 µg/mL. For the same compound, the Ratio in series [3] was 1.
